According to the supplement of paper PMC10307832:

Legend:
Assay in all cases: relative viability (nuclei count vs DMSO), 5 days (fraction); higher = more cells survive
[1] = compound: C1/C(=C\C2=CC=CS2)/C(=O)/C(=C/C3=CC=CS3)/C1 + CC(C)C[C@H](NC(=O)[C@H](Cc1ccccc1)NC(=O)c1cnccn1)B(O)O [Bortezomib] (partner 0.002 µM)
Summary of the method: (§1)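 Medians of duplicate plates are given as relative viability. That measure is the nuclei count in treated wells divided by the count in vehicle wells. Counts were taken on 4× images of lung cancer cell lines in 1536-well plates, 5 days after pin-tool dosing the day after seeding with one drug alone or a fixed anchor-drug dose plus five library-drug doses (not always all listed) in √10 steps.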

TPCA-1 + Lapatinib = compound: C1=CC(=CC=C1C2=CC(=C(S2)NC(=O)N)C(=O)N)F [TPCA-1] + CS(=O)(=O)CCNCc1ccc(-c2ccc3ncnc(Nc4ccc(OCc5cccc(F)c5)c(Cl)c4)c3c2)o1 [Lapatinib] (partner 2 µM)
Summary of the method: as §1

TPCA-1 + Pemetrexed = compound: C1=CC(=CC=C1C2=CC(=C(S2)NC(=O)N)C(=O)N)F [TPCA-1] + Nc1nc2[nH]cc(CCc3ccc(C(=O)N[C@@H](CCC(=O)O)C(=O)O)cc3)c2c(=O)[nH]1 [Pemetrexed] (partner 0.2 µM)
Summary of the method: as §1

[2] = compound: C[C@]12O[C@H](C[C@]1(O)CO)n1c3ccccc3c3c4c(c5c6ccccc6n2c5c31)CNC4=O [Lestaurtinib] + CC1(C)CCC(c2ccc(Cl)cc2)=C(CN2CCN(c3ccc(C(=O)NS(=O)(=O)c4ccc(N[C@H](CCN5CCOCC5)CSc5ccccc5)c(S(=O)(=O)C(F)(F)F)c4)cc3)CC2)C1 [Navitoclax] (partner 0.5 µM)
Summary of the method: as §1

Cell Line UMC-11 has a relative viability ([1]; first compound 0.2 µM) of 0.717, a relative viability ([1]; first compound 0.6325 µM) of 0.579 and a relative viability ([1]; first compound 2 µM) of 0.639. The relative viability ([1]; first compound 20 µM) was 0.597, the relative viability (TPCA-1 + Lapatinib; first compound 0.04 µM) was 1.18 and the relative viability (TPCA-1 + Lapatinib; first compound 0.1265 µM) was 0.754. For the same cell line, the relative viability (TPCA-1 + Lapatinib; first compound 0.4 µM) was 0.69, the relative viability (TPCA-1 + Lapatinib; first compound 1.265 µM) was 0.956 and the relative viability (TPCA-1 + Lapatinib; first compound 4 µM) was 0.178. For the same cell line, the relative viability (TPCA-1 + Pemetrexed; first compound 0.04 µM) was 0.809, the relative viability (TPCA-1 + Pemetrexed; first compound 0.1265 µM) was 0.763 and the relative viability (TPCA-1 + Pemetrexed; first compound 0.4 µM) was 0.843. For the same cell line, the relative viability (TPCA-1 + Pemetrexed; first compound 1.265 µM) was 0.776, the relative viability (TPCA-1 + Pemetrexed; first compound 4 µM) was 0.799 and the relative viability ([2]; first compound 0.005 µM) was 0.294. For the same cell line, the relative viability ([2]; first compound 0.01581 µM) was 0.275, the relative viability ([2]; first compound 0.05 µM) was 0.251 and the relative viability ([2]; first compound 0.1581 µM) was 0.144. For the same cell line, the relative viability ([2]; first compound 0.5 µM) was 0.143.
